The NIST ThermoML archive (doi:10.1016/j.jct.2013.11.003)
± gives the expanded uncertainty stated by the source.

Settings: Liquid, Transpiration method

COc1cccs1 [2-methoxythiophene]
Settings | vapor or sublimation pressure [kPa]
278.1 K | 0.1302 ± 0.0068
281 K | 0.1585 ± 0.0082
283 K | 0.1804 ± 0.0095
285.9 K | 0.2284 ± 0.012
287.8 K | 0.2708 ± 0.014
290.7 K | 0.3244 ± 0.017
292.7 K | 0.3939 ± 0.02
295.7 K | 0.4587 ± 0.024
297.6 K | 0.5406 ± 0.028
300.6 K | 0.6383 ± 0.033
302.6 K | 0.6976 ± 0.036
305.6 K | 0.8682 ± 0.045
307.6 K | 0.9894 ± 0.051
310.6 K | 1.147 ± 0.059
312.6 K | 1.336 ± 0.069
312.7 K | 1.299 ± 0.067
313.6 K | 1.366 ± 0.071
315.6 K | 1.559 ± 0.08
318.6 K | 1.83 ± 0.094
321.7 K | 2.196 ± 0.11
323.7 K | 2.471 ± 0.13

COc1ccsc1 [3-methoxythiophene]
Settings | vapor or sublimation pressure [kPa]
278.1 K | 0.089 ± 0.0047
281 K | 0.1105 ± 0.0058
283.9 K | 0.1366 ± 0.0071
286.8 K | 0.1662 ± 0.0087
289.7 K | 0.2094 ± 0.011
292.6 K | 0.2646 ± 0.014
295.7 K | 0.32 ± 0.016
297.6 K | 0.3561 ± 0.018
300.6 K | 0.4274 ± 0.022
303.6 K | 0.5203 ± 0.027
306.6 K | 0.6282 ± 0.033
309.6 K | 0.7649 ± 0.039
312.6 K | 0.9169 ± 0.047
315.7 K | 1.078 ± 0.055
318.7 K | 1.313 ± 0.067
321.7 K | 1.536 ± 0.078
324.7 K | 1.765 ± 0.089
